For orientation: IC50 means the concentration that gives 50% inhibition.

The test addresses T1, Human ATX protein (Homo sapiens, UniProt Q13822).
T1 construct: made in house
The test can be described thus: ATX biochemical FRET assay with FS-3 substrate. To be noted: FS-3 2 μM, ATX 1.0 μg/mL, room temperature 2 hours, fluorescence 485/538 nm. The source says:
ATX (Autotaxin) is a 125 KDa glycoprotein with lysophospholipase D (LPLD) activity that generates the bioactive lipid lysophosphatidic acid (LPA) from lysophosphatidylcholine (LPC). The ATX biochemical assay utilizes a FRET (fluorescence resonance energy transfer) technology platform. The fluorescence signal of FRET substrate FS-3 is quenched due to intra-molecular FRET of a fluorophore to a non-fluorescing quencher (Ferguson, C. G., et al., Org Lett. 2006 May 11; 8(10): 2023-2026, which is incorporated by reference in its entirety). ATX catalyzes the hydrolysis of the substrate which separates the dabsyl quencher from the fluorescein reporter, which becomes fluorescent. The reaction is monitored by a SpectraMax M5 (Molecular Devices, Sunnyvale, Calif.) with at excitation wavelength 485 nm and emission wavelength […].
Fatty acid free-BSA (Sigma A8806): 10 mg/ml, in H2O, stored at 4° C.
2×ATX assay buffer: 100 mM Tris, 280 mM NaCl, 10 mM KCl, 2 mM CaCl2, 2 mM MgCl2, pH 7.4.
Human ATX protein: expressed and purified in house. Stored at −80° C.
Substrate FS-3 (Echelon, L-2000): 100 μg in 77.74 μL H2O (1 mM stock), stored at −20° C.
384-well flat bottom plates—Corning #3575.
Compound dilution—All compounds were provided at 10 mM in 100% DMSO. In the first well, 2 μL of 10 mM compound was added to 78 μL of DMSO (1:40 dilution). In subsequent wells 3-fold dilution (total 10 dilutions) were performed.
1×ATX assay buffer was made up with a final concentration of 1 mg/mL fatty acid free-BSA using 2×ATX assay buffer, 10 mg/ml fatty acid free-BSA and ddH2O.
ATX protein was diluted with 1×ATX assay buffer to a concentration of 1.32 μg/mL (1.32×). 38 μL was added per well to the assay plate. The final concentration of ATX in the reaction as 1.0 μg/mL.
2 μL per well of compounds was transferred to provide the desired concentration. The plate was centrifuged, then incubated at room temperature for 30 minutes on the shaker.
FS-3 was diluted with 1×ATX assay buffer to a concentration of FS-3 of 10 μM (5×). Then, 10 μL was added per well to the assay plate. The final concentration of FS-3 in the reaction was 2 μM. The plate was centrifuged. The plate was kept shaking at room temperature for 2 hours. Because FS-3 substrate is light sensitive, plates were kept covered and protected from light.
Fluorescence was measured using SpectraMax M5 (excitation at 485 nm/emission at 538 nm, top read).
The compound `CC(c1ccc2c(C(F)F)c(O[C@H]3CC[C@@H](C)CC3)ccc2c1)N1C2CCC1CC(C(=O)O)C2` (relative stereo) [Example 133, 8-(1-(5-(difluoromethyl)-6-((cis-4-methylcyclohexyl)oxy)naphthalen-2-yl)ethyl)-8-azabicyclo[3.2.1]octane-3-carboxylic acid] yielded a concentration for half-maximal inhibition (IC50) of at most 100 nM. `C[C@H]1CC[C@@H](Oc2ccc3cc(CN4C5CCC4CC(C(=O)O)C5)ccc3c2C(F)F)CC1` (relative stereo) [Example 134, 8-(1-(5-(difluoromethyl)-6-((cis-4-methylcyclohexyl)oxy)naphthalen-2-yl)methyl)-8-azabicyclo[3.2.1]octane-3-carboxylic acid] gave an IC50 of at most 100 nM. In turn, `CCC(c1ccc2c(C(F)F)c(O[C@H]3CC[C@@H](C)CC3)ccc2c1)N1C2CCCC1CC(C(=O)O)C2` (relative stereo) [Example 135, 9-(1-(5-(difluoromethyl)-6-((cis-4-methylcyclohexyl)oxy)naphthalen-2-yl)propyl)-9-azabicyclo[3.3.1]nonane-3-carboxylic acid] showed an IC50 of at most 100 nM. In the case of `O=C(O)C1CC12CN(Cc1ccc3c(C(F)(F)F)c(O[C@H]4CC[C@@H](C(F)(F)F)CC4)ccc3c1)C2` (relative stereo) [Example 149, 2-((5-(trifluoromethyl)-6-((cis-4-(trifluoromethyl)cyclohexyl)oxy)naphthalen-2-yl)methyl)-2-azaspiro[3.2]hexane-5-carboxylic acid] it was at most 250 nM; in that of `O=C(O)C1CCCC2CCN(Cc3ccc4c(C(F)(F)F)c(O[C@H]5CC[C@@H](C(F)(F)F)CC5)ccc4c3)CC21` (relative stereo) [Example 150, N-((5-(trifluoromethyl)-6-((cis-4-(trifluoromethyl)cyclohexyl)oxy)naphthalen-2-yl)methyl)-decahydroisoquinoline-8-carboxylic acid], at most 250 nM; in that of `O=C(O)C1CCCC(C2CN(Cc3ccc4c(C(F)(F)F)c(O[C@H]5CC[C@@H](C(F)(F)F)CC5)ccc4c3)C2)C1` (relative stereo) [Example 159, N-(5-trifluoromethyl-6-(cis-4-trifluoromethyl-cyclohexyloxy)-naphthalen-2-ylmethyl)-3-(azetidine-3-yl)-cyclohexane-1-carboxylic acid], at most 500 nM.

`O=C(O)C1CC2CCC1N2Cc1ccc2c(C(F)(F)F)c(O[C@H]3CC[C@@H](C(F)(F)F)CC3)ccc2c1` (relative stereo) [Example 165, 7-(5-trifluoromethyl-6-(cis-4-trifluoromethyl-cyclohexyloxy)-naphthalen-2-ylmethyl)-7-azabicyclo[2.2.1]heptane-2-carboxylic acid]: the IC50 is at most 250 nM. Under `O=C(O)C1CC2CC(O)CC(C1)N2Cc1ccc2c(C(F)(F)F)c(O[C@H]3CC[C@@H](C(F)(F)F)CC3)ccc2c1` (relative stereo) [Example 169, 9-(5-trifluoromethyl-6-(cis-4-trifluoromethyl-cyclohexyloxy)-naphthalen-2-ylmethyl)-7-hydroxy-9-azabicyclo[3.3.1]nonane-3-carboxylic acid] stands at most 500 nM; under `O=C1CC2CC(C(=O)O)CC(C1)N2Cc1ccc2c(C(F)(F)F)c(O[C@H]3CC[C@@H](C(F)(F)F)CC3)ccc2c1` (relative stereo) [Example 170, 9-(5-trifluoromethyl-6-(cis-4-trifluoromethyl-cyclohexyloxy)-naphthalen-2-ylmethyl)-7-oxo-9-azabicyclo[3.3.1]nonane-3-carboxylic acid], at most 500 nM. `CC[C@H]1CC[C@@H](Oc2ccc3cc(CN4C5CCCC4CC(C(=O)O)C5)ccc3c2C(F)(F)F)CC1` (relative stereo) [Example 171, 9-((6-((cis-4-ethylcyclohexyl)oxy)-5-(trifluoromethyl)naphthalen-2-yl)methyl)-9-azabicyclo[3.3.1]nonane-3-carboxylic acid]: the IC50 was at most 100 nM. In turn, `CC[C@H]1CC[C@@H](Oc2ccc3cc(CN4C5CCC4CC(C(=O)O)C5)ccc3c2C(F)(F)F)CC1` (relative stereo) [Example 172, 8-((6-((cis-4-ethylcyclohexyl)oxy)-5-(trifluoromethyl)naphthalen-2-yl)methyl)-8-azabicyclo[3.2.1]octane-3-carboxylic acid] registered a 50% inhibitory concentration (IC50) of at most 250 nM. The compound `CC[C@H]1CC[C@@H](Oc2ccc3cc(C(C)N4C5CCCC4CC(C(=O)O)C5)ccc3c2C(F)(F)F)CC1` (relative stereo) [Example 175, 9-(1-(6-((cis-4-ethylcyclohexyl)oxy)-5-(trifluoromethyl)naphthalen-2-yl)ethyl)-9-azabicyclo[3.3.1]nonane-3-carboxylic acid] yielded an IC50 of at most 100 nM.

As to `CC[C@H]1CC[C@@H](Oc2ccc3cc(C(C)N4C5CCC4CC(C(=O)O)C5)ccc3c2C(F)(F)F)CC1` (relative stereo) [Example 176, 8-(1-(6-((cis-4-ethylcyclohexyl)oxy)-5-(trifluoromethyl)naphthalen-2-yl)ethyl)-8-azabicyclo[3.2.1]octane-3-carboxylic acid], the concentration for half-maximal inhibition (IC50) was at most 100 nM.

The compound `CCC(c1ccc2c(C(F)(F)F)c(O[C@H]3CC[C@@H](C(F)(F)F)CC3)ccc2c1)N1C2CCCC1CC(C(=O)O)C2` (relative stereo) [Example 177, 9-(1-(6-((cis-4-trifluoromethylcyclohexyl)oxy)-5-(trifluoromethyl)naphthalen-2-yl)propyl)-9-azabicyclo[3.3.1]nonane-3-carboxylic acid] yielded an IC50 of at most 100 nM. In turn, `CCC(c1ccc2c(C(F)(F)F)c(O[C@H]3CC[C@@H](C(F)(F)F)CC3)ccc2c1)N1C2CCC1CC(C(=O)O)C2` (relative stereo) [Example 178, 8-(1-(6-((cis-4-trifluoromethylcyclohexyl)oxy)-5-(trifluoromethyl)naphthalen-2-yl)propyl)-8-azabicyclo[3.2.1]octane-3-carboxylic acid] gave a half-maximal inhibitory concentration (IC50) of at most 100 nM. Compound `CCC(c1ccc2c(C(F)(F)F)c(O[C@H]3CC[C@@H](CC)CC3)ccc2c1)N1C2CCCC1CC(C(=O)O)C2` (relative stereo) [Example 179, 9-(1-(6-((cis-4-ethylcyclohexyl)oxy)-5-(trifluoromethyl)naphthalen-2-yl)propyl)-9-azabicyclo[3.3.1]nonane-3-carboxylic acid] came in with an IC50 of at most 100 nM. `CCC(c1ccc2c(C(F)(F)F)c(O[C@H]3CC[C@@H](CC)CC3)ccc2c1)N1C2CCC1CC(C(=O)O)C2` (relative stereo) [Example 180, 8-(1-(6-((cis-4-ethylcyclohexyl)oxy)-5-(trifluoromethyl)naphthalen-2-yl)propyl)-8-azabicyclo[3.2.1]octane-3-carboxylic acid]: the half-inhibitory concentration (IC50) is at most 100 nM. Compound `CC[C@H]1CC[C@@H](Oc2ccc3cc(C(C)N4C5CCCC4CC(C(=O)O)C5)ccc3c2Cl)CC1` (relative stereo) [Example 182, 9-(1-(6-((cis-4-ethylcyclohexyl)oxy)-5-chloronaphthalen-2-yl)ethyl)-9-azabicyclo[3.3.1]nonane-3-carboxylic acid] had an IC50 of at most 100 nM. Turning to `C[C@H]1CC[C@@H](Oc2ccc3cc(CN4C5CCCC4CC(C(=O)O)C5)ccc3c2Cl)CC1` (relative stereo) [Example 183, 9-((5-Chloro-6-((cis-4-methylcyclohexyl)oxy)naphthalen-2-yl)methyl)-9-azabicyclo[3.3.1]nonane-3-carboxylic acid], the IC50 is at most 250 nM. Under `CC[C@H]1CC[C@@H](Oc2ccc3cc(C(C)N4C5CCC4CC(C(=O)O)C5)ccc3c2Cl)CC1` (relative stereo) [Example 184, 8-(1-(5-Chloro-6-((cis-4-ethylcyclohexyl)oxy)naphthalen-2-yl)ethyl)-8-azabicyclo[3.2.1]octane-3-carboxylic acid] stands at most 100 nM.

As for `CC[C@H]1CC[C@@H](Oc2ccc3cc(CN4C5CCC4CC(C(=O)O)C5)ccc3c2Cl)CC1` (relative stereo) [Example 185, 8-((5-Chloro-6-((cis-4-ethylcyclohexyl)oxy)naphthalen-2-yl)methyl)-8-azabicyclo[3.2.1]octane-3-carboxylic acid], the IC50 is at most 100 nM. Under `C[C@H](c1ccc2c(C(F)(F)F)c(O[C@H]3CC[C@@H](C(F)(F)F)CC3)ccc2c1)N1C2CCCC1CC(C(=O)O)C2` (single isomer, unassigned) [Example 89] stands at most 100 nM.

Source of the values: patent US9944666B2, “Compounds that are S1P modulating agents and/or ATX modulating agents” (BIOGEN MA INC., priority 2012, dated 2018).
